The results in this text go back to the NIST ThermoML archive (doi:10.1016/j.jct.2008.01.002).

Data set [1] can be described thus: refractive index (Na D-line) (dimensionless). The note with it: 298.15 K; 101.33 kPa; Liquid; Standard Abbe refractometry.
For data set [2] the following is noted: Liquid; for mass density: 298.15 K, 101.33 kPa; for Normal boiling temperature: Closed cell (Static) method.

± gives the expanded uncertainty stated by the source.

Take `CC(C)OC(C)C` [diisopropyl ether]: the refractive index (in general, the speed of light in vacuum divided by its phase velocity in the sample) in data set [1] turned out to be 1.3652 ± 0.0005. Moreover, in data set [2], the mass density (in general, the mass of a sample divided by its volume) is listed as 718.32 ± 0.96 kg/m3 and the Normal boiling temperature was determined as 68.2 ± 0.2 °C.
Turning to `CCCOCCC` [dipropyl ether], the refractive index in data set [1] was 1.3784 ± 0.0005. In data set [2], the mass density amounted to 741.81 ± 0.56 kg/m3 and the Normal boiling temperature was 90.01 ± 0.2 °C.
For `CCCO` [propan-1-ol], in that order: 1.3836 ± 0.0005, 799.62 ± 0.79 kg/m3 and 96.60 ± 0.2 °C.
Regarding `CC(C)O` [propan-2-ol], the refractive index in data set [1] is reported as 1.3754 ± 0.0005. Further, the mass density in data set [2] (Vibrating tube method) was determined as 782.69 ± 0.12 kg/m3. In data set [2], the Normal boiling temperature worked out at 82.10 ± 0.2 °C.
With `O` [water], in data set [1], the refractive index was 1.3332 ± 0.0005. The Normal boiling temperature in data set [2] was determined as 100.00 ± 0.2 °C.
